The text below walks through data of US10047383B2, “Bioproduction of chemicals” (Cargill, Incorporated, priority 2013, dated 2018).

Molecules are shown by their SMILES. A value given as a limit tells only on which side of the number the result lay.

The test system of one assay is E. coli strains. Nature of the assay: Growth inhibition of E. coli strains grown in the presence of 3-HP. The format is cell-based.
Another assay relates to H. elongata ACCase. The assay is described as follows: Salt effect on ACCase from the halophile. The format is biochemical, Halomonas elongata. The conditions noted are these: FIG. 4, compared to the E. coli ACCase. The procedure: Concentrations of products were measured using the Nanodrop spectophotometer.

For the molecule `O=C(O)CCO` [3-HP, 3-hydroxypropionic acid], in the assay with E. coli strains, the “3-HP level at which growth inhibition has been demonstrated” value is given as no less than 20 g/L.

For the molecule `N.O=C(O)CCO` [NH4-3-HP], the “effect of salt on H. elongata ACCase” value in the assay with H. elongata ACCase is listed as “less affected”. For `Cl.N` [NH4Cl, reference compound], the “effect of salt on H. elongata ACCase” value in the assay on H. elongata ACCase is “less affected”.
